These results are taken from patent EP0107208A1, “1,1,2-Triphenyl-but-1-ene derivatives, process for their preparation and their use as medicines” (Klinge Pharma GmbH, priority 1982, dated 1984).

“And” between values parts separate entries of the source, which are not always exact repeats. Identical values can stand only once. Like-named read-outs stand apart in the source and are kept apart here.

Experiment [1] concerns ZR-75-1-Zellen. The experiment can be described thus: Inhibition of RNA synthesis in isolated human mammary tumour cells (incorporation of labelled uridine). The note with it: for inhibition at 1 µM / inhibition at 4 µM / inhibition at 0.1 µM: Homo sapiens, ZR-75-1, 48 h; for Prozentuale Hemmung der RNS-Synthese: 2880 min. The class given is cell-based. The source says:
[…] positive [ER +] Mammatumor-Zellen aus Patienten zu isolieren und in vitro kontinuierlich zu […] sog. […] in vivo beobachteten morphologischen […] und […] somit […] zur Testung von Antiestrogenen dar,da direkte Aussagen über den Einfluß auf den in vivo zu […]. […] Der Einfluß der beanspruchten Verbindunger. auf das Wachstum dieser Zellen wurde über den Einbau von […] bzw. Thymidin nach der Methode von Lippman, M. et al kontrolliert. […] Thymidin versetzt und nach einer Stunde die Einbaurate des markierten Materials in den Zellen bestimmt.

For experiment [2], the target named is T1, Estradiolrezeptor (Oryctolagus cuniculus, UniProt G1SML6).
T1 construct: Das Uteruscytosol von weiblichen, präpubertären, weißen 2 kg schweren Kaninchen (Neuseeländer); from tissue; host or cells: uterus cytosol of female prepubertal New Zealand white rabbits
T1 sequence (G1SML6 1-598): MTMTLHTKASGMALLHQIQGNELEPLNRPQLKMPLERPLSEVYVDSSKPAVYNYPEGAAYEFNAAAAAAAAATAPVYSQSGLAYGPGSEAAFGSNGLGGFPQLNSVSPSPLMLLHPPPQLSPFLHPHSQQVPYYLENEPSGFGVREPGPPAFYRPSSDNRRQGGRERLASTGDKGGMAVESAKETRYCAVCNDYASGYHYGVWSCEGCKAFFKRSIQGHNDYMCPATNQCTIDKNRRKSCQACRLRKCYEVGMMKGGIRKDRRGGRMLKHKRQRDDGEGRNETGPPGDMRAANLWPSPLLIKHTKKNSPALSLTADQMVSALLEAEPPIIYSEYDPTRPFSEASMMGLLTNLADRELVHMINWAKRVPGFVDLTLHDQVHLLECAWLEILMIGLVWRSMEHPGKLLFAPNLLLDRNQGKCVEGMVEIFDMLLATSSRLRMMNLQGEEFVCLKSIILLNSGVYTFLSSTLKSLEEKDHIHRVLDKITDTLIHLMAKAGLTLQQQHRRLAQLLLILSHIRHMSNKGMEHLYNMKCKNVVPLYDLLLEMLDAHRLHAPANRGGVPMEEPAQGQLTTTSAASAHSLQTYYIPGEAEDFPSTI
The experiment can be described thus: Binding affinity to the estradiol receptor: displacement of [3H]-estradiol in rabbit uterus cytosol. The settings on record: molar concentration displacing 50% [3H]-Estradiol from the receptor, 18 h at 4° C, 2.5 ×10^-9 M [3H]-Estradiol, read-out: ED50% (the source's name). The arrangement: species or system Kaninchen (Neuseeländer). From the text: Die Messung der Eindungsaffinität zum Estradiolrezeptor erfolgte nach der Eethode von N. Devleeschouwer, G. Leclercq, A. Danguy und J. C. Heuson LEurop. J. Cancer, 14 ,721 - 723 (197o)].
Testsubstanz verschiedener Konzentration inkubiert.Die Bindungsaffinität zum Estradiolrezeptor wird ausgedrückt durch die aen. […] Testsubstanz, welche eine 5C-prcz.
Background: Loss of bound radioactivity is the signal in a displacement assay; it reports binding, not function.

Experiment [3] concerns ZR-75-1-Zellen. The experiment can be described thus: Inhibition of RNA synthesis in ZR-75-1 cells in the presence of 17-β-estradiol. The class given is cell-based. The settings on record: Homo sapiens, compound 1 x 10^-6 [M] + 17-β-Estradiol 1 x 10^-8 [M], 48 h incubation, read-out: Prozentuale Hemmung der RNS-Synthese. The source says:
Zur […] vivo wurde die Potenz der antiestrogenen Wirkung der beanspruchten Verbindungen in Gegenwart eines Estrogens geprüft. […] Thymidin hinzugefügt und nach einer Stunde die Einbaurate des markierten Materials in gen Zellen bestimmt.[Tab.4]

The mark [4] stands for this setting: read-out: Prozentuale Hemmung der RNS-Synthese.

Regarding `CC/C(=C(\c1ccccc1)c1ccc(OCCN(C)C)cc1)c1ccccc1` [Tamoxifen, (Z)-1-[4'-(2-Dimetrylaminoethcxy)phenyl]-1,2-diphenyl-but-1-en, reference compound], the inhibition at 1 µM in experiment [1] (read-out: Prozentuale Hemmung der RNS-Synthese, substance concentration 1 x 10^-6[M], 48 h incubation, Tamoxifen run in each experiment) stood at 43%. For the same compound, in experiment [1] (read-out: Prozentuale Hemmung der RNS-Synthese, substance concentration 4 x 10^-6[M], 48 h incubation, Tamoxifen run in each experiment), the inhibition at 4 µM amounted to 99%. For the same compound, the “Prozentuale Hemmung der RNS-Synthese” value was 44% and 39% and 59% in experiment [1] (substance concentration 1 x 10^-6[M], 48 h incubation, Tamoxifen run in each experiment, 1 µM); 46% in experiment [1] (substance concentration 1 x 10^-6[M], 48 h incubation, Tamoxifen run in each experiment, listed as Taxoxifen, 1 µM); 29% and 16% in experiment [1] (substance concentration 1 x 10^-7[M], 48 h incubation, Tamoxifen run in each experiment, 0.1 µM); 2% in experiment [1] (substance concentration 1 x 10^-7[M], 48 h incubation, Tamoxifen run in each experiment, 0.1 µM, listed as Taxoxifen); 100% in experiment [1] (substance concentration 4 x 10^-6[M], 48 h incubation, Tamoxifen run in each experiment, 4 µM); 93% in experiment [1] (substance concentration 4 x 10^-6[M], 48 h incubation, Tamoxifen run in each experiment, listed as Taxoxifen, 4 µM).
For the compound `CC/C(=C(/c1ccc(OCCN(C)C)cc1)c1cccc(O)c1)c1cccc(C)c1` [Verbindung 1, (E)-1-[4'-(2-Dimethylaminoethoxy)phenyl]-1-(3'-hydroxyphenyl)-2-(3'-methylphenyl)-but-1-en], in experiment [1] (setting [4]), the inhibition at 0.1 µM stood at 47%, the inhibition at 1 µM worked out at 74% and the inhibition at 4 µM worked out at 100%. The IC50 in experiment [2] worked out at 35 nM. Moreover, the inhibition at 1 µM in experiment [3] was 74%.
As to `CC/C(=C(/c1ccc(OCCN(C)C)cc1)c1cccc(O)c1)c1ccc(C)cc1` [Verbindung 2], in experiment [1] (setting [4]), the inhibition at 0.1 µM is 42%, the inhibition at 1 µM is 62% and the inhibition at 4 µM worked out at 100%. Further, in experiment [2], the IC50 was 73 nM. Moreover, in experiment [3], the inhibition at 1 µM was 58%.
For `CC/C(=C(/c1ccc(OCCN(C)C)cc1)c1cccc(O)c1)c1ccc(OC)cc1` [Verbindung 3, (E)-1-[4'-(2-Dimethylaminoethoxy)phenyl]-1-(3'-hydroxyphenyl)-2-(4'-methoxyphenyl)-but-1-en], in that order: 36%, 68%, 100%, 28 nM and 65%.
Consider `CC/C(=C(/c1ccc(OCCN(C)C)cc1)c1cccc(O)c1)c1cccc(O)c1` [Verbindung 4, (E)-1-[4'-(2-Dimethylaminoethoxy)phenyl]-1,2-bis-(3'-hydroxyphenyl)-but-1-en], for which, in experiment [1] (setting [4]), the inhibition at 0.1 µM turned out to be 33%, the inhibition at 1 µM turned out to be 73% and the inhibition at 4 µM came out at 100%. Besides, the inhibition at 1 µM in experiment [3] amounted to 79%.
On to `CC/C(=C(/c1ccc(OCCN(C)C)cc1)c1cccc(O)c1)c1ccc(Cl)cc1` [Verbindung 5], for which, in experiment [1] (setting [4]), the inhibition at 0.1 µM is 41%, the inhibition at 1 µM was 61% and the inhibition at 4 µM was 100%. The IC50 in experiment [2] stood at 85 nM.
In the case of `CC/C(=C(/c1ccc(OCCN(C)C)cc1)c1cccc(O)c1)c1ccc(Br)cc1` [Verbindung 6, (E)-2-(4'-Bromphenyl)-1-[4'-(2-dimethylaminoethoxy)phenyl]-1-(3'-hydroxyphenyl)-but-l-en], in experiment [1] (setting [4]), the inhibition at 0.1 µM was found to be 47%, the inhibition at 1 µM is 70% and the inhibition at 4 µM worked out at 100%. Besides, in experiment [3], the inhibition at 1 µM amounted to 74%.
For `CC/C(=C(/c1ccc(OCCN(CC)CC)cc1)c1cccc(O)c1)c1ccc(OC)cc1` [Verbindung 7, (E)-1-[4'-(2-Diethylaminoethoxy)phenyl]-1-(3'-hydroxyphenyl)-2-(4'methoxyphenyl)-but-l-en], in that order: 4%, 37%, 91% and 41%.
